Assay results taken from paper PMC10298530, “Synthesis and Anticancer Activity of A-Ring-Modified Derivatives of Dihydrobetulin” (International Journal of Molecular Sciences, 2023).
Like-named read-outs stand apart in the source and are kept apart here.

Columns and labels:
[1] = system: HEK293; test: MTT cell viability assay, HEK293; format: cell-based; conditions: Homo sapiens
Description: (§1) Blokhin National Medical Research Center of Oncology (the Ministry of Health of the Russian Federation, Moscow).

[2] = system: MCF-7; test: MTT cell viability assay, MCF-7; format: cell-based, human; conditions: for IC50: Homo sapiens, MCF7; for Selectivity index (SI): ratio of IC50 values healthy (HEK293) / MCF-7
Description: as §1

[3] = system: HCT116; test: MTT cell viability assay, HCT116; format: cell-based, human; conditions: for IC50: Homo sapiens, HCT-116; for Selectivity index (SI): ratio of IC50 values healthy (HEK293) / HCT116
Description: as §1

[4] = system: RD TE32; test: MTT cell viability assay, RD TE32; format: cell-based, human; conditions: for IC50: Homo sapiens; for Selectivity index (SI): ratio of IC50 values healthy (HEK293) / RD TE32
Description: as §1

[5] = system: MS; test: MTT cell viability assay, MS; format: cell-based, human; conditions: for IC50: Homo sapiens; for Selectivity index (SI): ratio of IC50 values healthy (HEK293) / MS;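 as to IC50 (mean ± SD): MS is a melanocyte cell line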
Description: as §1

[6] = system: A549; test: MTT cell viability assay, A549; format: cell-based, human; conditions: for IC50: Homo sapiens; for Selectivity index (SI): ratio of IC50 values healthy (HEK293) / A549
Description: as §1

[7] = system: PC-3; test: MTT cell viability assay, PC-3; format: cell-based, human; conditions: for IC50: Homo sapiens; for Selectivity index (SI): ratio of IC50 values healthy (HEK293) / PC-3
Description: as §1

[8] = system: HEpG2; test: MTT cell viability assay, HEpG2; format: cell-based, human; conditions: for IC50: Homo sapiens; for Selectivity index (SI): ratio of IC50 values healthy (HEK293) / HEpG2
Description: as §1

[9] = system: HBL-100; test: MTT cell viability assay, HBL-100; format: cell-based, human; conditions: for IC50: Homo sapiens; for Selectivity index (SI): ratio of IC50 values healthy (HEK293) / HBL-100
Method: (§2) The cells were cultured in a humidified CO2 incubator (model 460-CE; Thermo Fisher Scientific, Waltham, MA, USA) at +37 °C and 5% CO2.
(§3) The percentage of the viable cells was calculated according to the following equation: cell viability (%) = 100 × (mean absorbance in the treatment group/mean absorbance in the control group). The results were expressed pictorially using Prism 6.0 (GraphPad Software, Boston, MA, USA).

[10] = system: HBL-100/Dox; test: MTT cell viability assay, HBL-100/Dox; format: cell-based, human; conditions: for IC50: Homo sapiens; for Selectivity index (SI): ratio of IC50 values healthy (HEK293) / HBL-100/Dox
Method: as §2, §3

[11] = system: human cancer cell lines; test: MTT assay, panel of cancer cell lines; conditions: for IC50: Homo sapiens, read-out: moderate activity (range); for cytotoxicity in the screening studies: MTT screening, Table S1
Method: In this study, the human embryonic kidney cell line HEK293 was used as the non-cancerous cell line.
To investigate the cytotoxic activity of the compounds under study, the MTT colorimetric assay [45] was performed. […] After 72 h, 20 μL of 5 mg/mL solution of MTT (PanEco, Moscow, Russia), in sterile phosphate-buffered saline (PBS; PanEco, Moscow, Russia), was added to each well and further incubated for 4 h. Then, the medium with the compounds was removed, and the formed formazan crystals were dissolved in 100 μL of DMSO. […] The IC50 values were determined from dose-dependent curves, using Prism 6.0 (GraphPad Software, Boston, MA, USA).

[12] = HEK293, MTT, 72 h of treatment, read-out: IC50 Values (Mean ± SD)
[13] = Table S1, HEK293, read-out: IC50 (mean ± SD)
[14] = MCF-7, MTT, 72 h of treatment, read-out: IC50 Values (Mean ± SD)
[15] = Table S1, MCF-7, read-out: IC50 (mean ± SD)
[16] = HCT116, MTT, 72 h of treatment, read-out: IC50 Values (Mean ± SD)
[17] = Table S1, HCT116, read-out: IC50 (mean ± SD)
[18] = RD TE32, MTT, 72 h of treatment, read-out: IC50 Values (Mean ± SD)
[19] = Table S1, RD TE32, read-out: IC50 (mean ± SD)
[20] = MS, MTT, 72 h of treatment, read-out: IC50 Values (Mean ± SD)
[21] = A549, MTT, 72 h of treatment, read-out: IC50 Values (Mean ± SD)
[22] = PC-3, MTT, 72 h of treatment, read-out: IC50 Values (Mean ± SD)
[23] = Table S1, PC-3, read-out: IC50 (mean ± SD)
[24] = HEpG2, MTT, 72 h of treatment, read-out: IC50 Values (Mean ± SD)
[25] = HBL-100, MTT, 72 h of treatment, read-out: IC50 Values (Mean ± SD)
[26] = Table S1, HBL-100, read-out: IC50 (mean ± SD)
[27] = HBL-100, 72 h, read-out: IC50 Values (Mean ± SD)
[28] = HBL-100, read-out: IC50 (mean ± SD)
[29] = Table S1, A549, read-out: IC50 (mean ± SD)
[30] = Table S1, MS, read-out: IC50 (mean ± SD)
[31] = Table S1, HEpG2, read-out: IC50 (mean ± SD)

Compound: C=C1C[C@H](C#N)C[C@@]2(C)C1CC[C@]1(C)C2CCC2C3C(C(C)C)CC[C@]3(CO)CC[C@]21C (stereo partly drawn) [compound 12, 2-Cyano-28-hydroxy-3,4-seco-3-nor-2,24-cyclolup-4(23)-ene]
- IC50 [1, 12]: 76.5 ± 2.5 µM
- IC50 [1, 13]: 76.5 ± 2.49 µM
- IC50 [2, 14]: 64.2 ± 3 µM
- IC50 [2, 15]: 64.2 ± 3.01 µM
- Selectivity index (SI) [2]: 1.19
- IC50 [3, 16]: 51 ± 3.7 µM
- IC50 [3, 17]: 51 ± 3.67 µM
- Selectivity index (SI) [3]: 1.50
- IC50 [4, 18]: 98.6 ± 2.3 µM
- IC50 [4, 19]: 98.6 ± 2.33 µM
- Selectivity index (SI) [4]: 0.78
- IC50 [5, 20]: > 200 µM
- Selectivity index (SI) [5]: < 0.38
- IC50 [6, 21]: 44.4 ± 2.4 µM
- Selectivity index (SI) [6]: 1.72
- IC50 [7, 22]: 55.7 ± 4.9 µM
- IC50 [7, 23]: 55.7 ± 4.89 µM
- Selectivity index (SI) [7]: 1.37
- IC50 [8, 24]: > 100 µM
- Selectivity index (SI) [8]: < 0.77
- IC50 [9, 25]: 36.6 ± 1.4 µM
- IC50 [9, 26]: 36.6 ± 1.44 µM
- Selectivity index (SI) [9]: 2.09
- IC50 [10, 27]: 63 ± 1.9 µM
- IC50 [10, 28]: 63 ± 1.92 µM
- Selectivity index (SI) [10]: 1.21
- melting point: 185.1 °C
- IC50 [11]: 16 to 77.8 µM
- cytotoxicity in the screening studies [11]: relatively weak or moderate cytotoxicity

Compound: CC(C)C1CC[C@]2(CO)CC[C@]3(C)C(CCC4[C@@]5(C)CC(C#N)=CC(=O)C5CC[C@]43C)C12 (stereo partly drawn) [compound 14, 2-Cyano-28-hydroxy-4-oxo-3,4-seco-3,23-dinor-2,24-cyclolup-2(24)-ene]
- IC50 [1, 12]: 77.8 ± 2.9 µM
- IC50 [1, 13]: 77.8 ± 2.9 µM
- IC50 [2, 14]: 56.7 ± 3.7 µM
- IC50 [2, 15]: 56.7 ± 3.72 µM
- Selectivity index (SI) [2]: 1.37
- IC50 [3, 16]: 49.9 ± 0.1 µM
- Selectivity index (SI) [3]: 1.56
- IC50 [4, 18]: 49.1 ± 1.4 µM
- Selectivity index (SI) [4]: 1.58
- IC50 [5, 20]: 69.1 ± 1 µM
- Selectivity index (SI) [5]: 1.13
- IC50 [6, 21]: 63.2 ± 1.4 µM
- IC50 [6, 29]: 63.2 ± 1.42 µM
- Selectivity index (SI) [6]: 1.23
- IC50 [7, 22]: 28.3 ± 2.3 µM
- IC50 [7, 23]: 28.3 ± 2.29 µM
- Selectivity index (SI) [7]: 2.75
- IC50 [8, 24]: > 100 µM
- Selectivity index (SI) [8]: < 0.78
- IC50 [9, 25]: 46.9 ± 2.2 µM
- IC50 [9, 26]: 46.9 ± 2.22 µM
- Selectivity index (SI) [9]: 1.66
- IC50 [10, 27]: 54 ± 1.8 µM
- IC50 [10, 28]: 54 ± 1.82 µM
- Selectivity index (SI) [10]: 1.44
- melting point: 121 °C
- IC50 [11]: 16 to 77.8 µM
- cytotoxicity in the screening studies [11]: relatively weak or moderate cytotoxicity

Compound: CC(=O)C1CC[C@]2(C)C(CCC3C4C(C(C)C)CC[C@]4(COC(=O)c4ccccc4)CC[C@]32C)[C@@]1(C)CCC#N (stereo partly drawn) [compound 20, 28-Benzoyloxy-2-cyano-4-oxo-3,4-seco-3,23-dinorlupane]
- IC50 [1, 13]: > 100 µM
- IC50 [2, 15]: > 100 µM
- IC50 [3, 17]: > 100 µM
- IC50 [4, 19]: > 100 µM
- IC50 [5, 30]: > 100 µM
- IC50 [6, 29]: > 100 µM
- IC50 [7, 23]: > 100 µM
- IC50 [8, 31]: > 100 µM
- IC50 [9, 26]: > 200 µM
- IC50 [10, 28]: > 200 µM
- melting point: 185.8 °C

Compound: COC(=O)[C@]12CCC(C(C)C)C1C1CCC3[C@@](C)(CCC#N)C(C(C)=O)CC[C@@]3(C)[C@]1(C)CC2 (stereo partly drawn) [compound 21, 2-Cyano-4-oxo-3,4-seco-3,23-dinorlupan-28-oic acid methyl ester]
- IC50 [1, 13]: > 100 µM
- IC50 [2, 15]: 97.5 ± 4.21 µM
- IC50 [3, 17]: > 100 µM
- IC50 [4, 19]: > 100 µM
- IC50 [5, 30]: > 100 µM
- IC50 [6, 29]: > 100 µM
- IC50 [7, 23]: > 100 µM
- IC50 [8, 31]: > 100 µM
- IC50 [9, 26]: > 100 µM
- IC50 [10, 28]: > 200 µM
- melting point: 177.2 °C

Compound: CC1=C(C#N)C[C@@]2(C)C1CC[C@]1(C)C2CCC2C3C(C(C)C)CC[C@]3(CO)CC[C@]21C (stereo partly drawn) [compound 22, 2-Cyano-28-hydroxy-3,4-seco-3,23-dinor-2,4-cyclolup-2(4)-ene]
- IC50 [1, 13]: > 100 µM
- IC50 [2, 15]: 89.3 ± 3.01 µM
- IC50 [3, 17]: 74.2 ± 2.56 µM
- IC50 [4, 19]: 84.7 ± 3.68 µM
- IC50 [5, 30]: > 100 µM
- IC50 [6, 29]: > 200 µM
- IC50 [7, 23]: 36.5 ± 1.31 µM
- IC50 [8, 31]: > 100 µM
- IC50 [9, 26]: > 100 µM
- IC50 [10, 28]: > 100 µM
- melting point: 184.2 °C

Compound: COC(=O)[C@]12CCC(C(C)C)C1C1CCC3[C@@]4(C)CC(C#N)=C(C)C4CC[C@@]3(C)[C@]1(C)CC2 (stereo partly drawn) [compound 23, 2-Cyano-3,4-seco-3,23-dinor-2,4-cyclolup-2(4)-en-28-oic acid methyl ester]
- IC50 [1, 13]: > 100 µM
- IC50 [2, 15]: 70.2 ± 3.09 µM
- IC50 [3, 17]: > 100 µM
- IC50 [4, 19]: > 100 µM
- IC50 [5, 30]: > 100 µM
- IC50 [6, 29]: > 200 µM
- IC50 [7, 23]: > 200 µM
- IC50 [8, 31]: > 200 µM
- IC50 [9, 26]: > 100 µM
- IC50 [10, 28]: > 100 µM
- melting point: 168.5 °C

Compound: CC(C)C1CC[C@]2(COC(=O)c3ccccc3)CC[C@]3(C)C(CCC4[C@@](C)(CCC#N)C(C(=O)CBr)CC[C@]43C)C12 (stereo partly drawn) [compound 28, 28-Benzoyloxy-24-bromo-2-cyano-4-oxo-3,4-seco-3,23-dinorlupane]
- IC50 [1, 13]: > 100 µM
- IC50 [2, 15]: 86.1 ± 10.1 µM
- IC50 [3, 17]: > 100 µM
- IC50 [4, 19]: > 100 µM
- IC50 [5, 30]: > 100 µM
- IC50 [6, 29]: > 100 µM
- IC50 [7, 23]: > 100 µM
- IC50 [8, 31]: > 100 µM
- IC50 [9, 26]: > 100 µM
- IC50 [10, 28]: > 200 µM
- melting point: 91.6 °C

Compound: CC(C)C1CC[C@]2(COC(=O)c3ccccc3)CC[C@]3(C)C(CCC4[C@@](C)(CCC#N)C(C(=O)C(Br)Br)CC[C@]43C)C12 (stereo partly drawn) [compound 29, 28-Benzoyloxy-2-cyano-24,24-dibromo-4-oxo-3,4-seco-3,23-dinorlupane]
- IC50 [1, 13]: > 100 µM
- IC50 [2, 15]: 49 ± 5.33 µM
- IC50 [3, 17]: > 200 µM
- IC50 [4, 19]: 73.2 ± 5.24 µM
- IC50 [5, 30]: > 100 µM
- IC50 [6, 29]: > 100 µM
- IC50 [7, 23]: > 100 µM
- IC50 [8, 31]: > 100 µM
- IC50 [9, 26]: > 100 µM
- IC50 [10, 28]: > 200 µM
- melting point: 107.7 °C
